From ChEMBL document CHEMBL3745648, “Synthesis, in vitro antibacterial activities of a series of 3-N-substituted canthin-6-ones” (2016) come the findings set out here.

In brackets after ≈: the same amount, converted by molar mass.

Holding throughout (assay type): functional
Assay [1] concerns Ralstonia solanacearum. Briefly: Antibacterial activity against Pseudomonas solanacearum after 12 to 16 hrs by plate reader analysis.
For assay [2], the system named is Ralstonia solanacearum. Briefly: Antibacterial activity against Ralstonia solanacearum after 12 to 16 hrs by plate reader analysis.
The subject of another assay is Bacillus cereus. Briefly: Antibacterial activity against Bacillus cereus after 12 to 16 hrs by plate reader analysis.
The test system of a further assay is Staphylococcus aureus. Briefly: Antibacterial activity against Staphylococcus aureus after 12 to 16 hrs by plate reader analysis.

For `O=C1CCc2nccc3c4ccccc4n1c23`, the minimum inhibitory concentration (MIC) (commonly the lowest concentration that inhibits growth of the organism) turned out to be 7.81 µg/mL (≈ 35.1 µM) with Ralstonia solanacearum [1], 15.6 µg/mL (≈ 70.3 µM) against Ralstonia solanacearum [2], 15.6 µg/mL (≈ 70.3 µM) in the assay with Bacillus cereus and 125 µg/mL (≈ 562 µM) against Staphylococcus aureus.

For `O=C1CCC2c3c(c4ccccc4n31)CCN2Cc1ccccc1` (stereo unspecified), the MIC in the assay with Ralstonia solanacearum [1], in the assay with Ralstonia solanacearum [2], in the assay with Bacillus cereus and with Staphylococcus aureus was more than 125 µg/mL in each case.

Take `Cc1ccc(C[n+]2ccc3c4ccccc4n4c(=O)ccc2c34)cc1.[Cl-]`: the MIC against Ralstonia solanacearum [1] stood at 7.81 µg/mL; in the assay with Ralstonia solanacearum [2], 31.2 µg/mL; against Bacillus cereus it was 15.6 µg/mL; in the assay with Staphylococcus aureus it was 1.95 µg/mL.

For `CCCCCCCC[n+]1ccc2c3ccccc3n3c(=O)ccc1c23.[Br-]`, the MIC against Ralstonia solanacearum [1] amounted to 7.81 µg/mL; with Ralstonia solanacearum [2], 31.2 µg/mL; with Bacillus cereus, 62.5 µg/mL; in the assay with Staphylococcus aureus, 0.98 µg/mL.

For `O=c1ccc2c3c(cc[n+]2Cc2ccc(CBr)cc2)c2ccccc2n13.[Br-]`, the MIC worked out at 31.2 µg/mL against Ralstonia solanacearum [1], 31.2 µg/mL in the assay on Ralstonia solanacearum [2], 62.5 µg/mL against Bacillus cereus and 7.81 µg/mL with Staphylococcus aureus.

`O=c1ccc2c3c(cc[n+]2Cc2ccc(Cl)cc2)c2ccccc2n13.[Cl-]`: the minimal inhibitory concentration (MIC) was determined as 15.6 µg/mL with Ralstonia solanacearum [1], 15.6 µg/mL against Ralstonia solanacearum [2], 15.6 µg/mL against Bacillus cereus and 7.81 µg/mL in the assay with Staphylococcus aureus.

As for `Cc1cccc(C[n+]2ccc3c4ccccc4n4c(=O)ccc2c34)c1.[Cl-]`, the MIC in the assay with Ralstonia solanacearum [1] worked out at 7.81 µg/mL; against Ralstonia solanacearum [2], 15.6 µg/mL; against Bacillus cereus, 15.6 µg/mL; in the assay with Staphylococcus aureus, 1.95 µg/mL.

Regarding `CC[n+]1ccc2c3ccccc3n3c(=O)ccc1c23.[I-]`, the MIC against Ralstonia solanacearum [1], against Ralstonia solanacearum [2], against Bacillus cereus and against Staphylococcus aureus was more than 125 µg/mL in each case.

For `O=c1ccc2c3c(cc[n+]2Cc2ccc(F)cc2F)c2ccccc2n13.[Cl-]`, the MIC in the assay with Ralstonia solanacearum [1] came out at 7.81 µg/mL; in the assay on Ralstonia solanacearum [2], 31.2 µg/mL; with Bacillus cereus it was 31.2 µg/mL; against Staphylococcus aureus, 0.98 µg/mL.

In the case of `O=c1ccc2c3c(cc[n+]2Cc2ccccc2)c2ccccc2n13.[Cl-]`, the MIC with Ralstonia solanacearum [1] was determined as 1.95 µg/mL; in the assay on Ralstonia solanacearum [2] it was 3.91 µg/mL; in the assay on Bacillus cereus, 3.91 µg/mL; in the assay with Staphylococcus aureus, 1.95 µg/mL.

As for `O=c1ccc2c3c(cc[n+]2Cc2ccc(F)cc2)c2ccccc2n13.[Cl-]`, the MIC in the assay on Ralstonia solanacearum [1] worked out at 15.6 µg/mL; in the assay on Ralstonia solanacearum [2], 31.2 µg/mL; against Bacillus cereus it was 31.2 µg/mL; with Staphylococcus aureus, 1.95 µg/mL.

Consider `O=C1CCC2NCCc3c2n1c1ccccc31` (stereo unspecified), for which the MIC against Ralstonia solanacearum [1], against Ralstonia solanacearum [2], in the assay with Bacillus cereus and in the assay with Staphylococcus aureus was more than 125 µg/mL in each case.

On to `O=c1ccc2c3c(cc[n+]2Cc2ccccc2F)c2ccccc2n13.[Cl-]`, for which the MIC with Ralstonia solanacearum [1] was 3.91 µg/mL; against Ralstonia solanacearum [2] it was 15.6 µg/mL; with Bacillus cereus it was 7.81 µg/mL; against Staphylococcus aureus, 1.95 µg/mL.

In the case of `O=c1ccc2c3c(cc[n+]2Cc2c(F)cccc2F)c2ccccc2n13.[Cl-]`, the MIC in the assay on Ralstonia solanacearum [1] was 7.81 µg/mL; against Ralstonia solanacearum [2], 15.6 µg/mL; in the assay with Bacillus cereus, 15.6 µg/mL; in the assay with Staphylococcus aureus, 0.98 µg/mL.

As to `CC(C)[n+]1ccc2c3ccccc3n3c(=O)ccc1c23.[I-]`, the MIC in the assay with Ralstonia solanacearum [1], in the assay on Ralstonia solanacearum [2], against Bacillus cereus and against Staphylococcus aureus was more than 125 µg/mL in each case.

In the case of `CCCCC[n+]1ccc2c3ccccc3n3c(=O)ccc1c23.[I-]`, the MIC in the assay on Ralstonia solanacearum [1] came to 15.6 µg/mL; against Ralstonia solanacearum [2], 31.2 µg/mL; against Bacillus cereus, 62.5 µg/mL; in the assay on Staphylococcus aureus, 31.2 µg/mL.

For the compound `CCC[n+]1ccc2c3ccccc3n3c(=O)ccc1c23.[I-]`, the MIC in the assay on Ralstonia solanacearum [1], with Ralstonia solanacearum [2], in the assay on Bacillus cereus and with Staphylococcus aureus was more than 125 µg/mL each time.

Turning to `O=c1ccc2c3c(cc[n+]2Cc2ccc(C(F)(F)F)cc2)c2ccccc2n13.[Cl-]`, the MIC against Ralstonia solanacearum [1] was 62.5 µg/mL; against Ralstonia solanacearum [2] it was 15.6 µg/mL; against Bacillus cereus, 62.5 µg/mL; in the assay with Staphylococcus aureus, 7.81 µg/mL.

For `C=CC[n+]1ccc2c3ccccc3n3c(=O)ccc1c23.[Br-]`, the MIC in the assay on Ralstonia solanacearum [1] came to 62.5 µg/mL; in the assay with Ralstonia solanacearum [2], 62.5 µg/mL; with Bacillus cereus it was 125 µg/mL; against Staphylococcus aureus, 62.5 µg/mL.

As for `CC(C)C[n+]1ccc2c3ccccc3n3c(=O)ccc1c23.[I-]`, the MIC in the assay on Ralstonia solanacearum [1] was 62.5 µg/mL; against Ralstonia solanacearum [2], more than 125 µg/mL; in the assay with Bacillus cereus, more than 125 µg/mL; against Staphylococcus aureus, 125 µg/mL.

As for `C[n+]1ccc2c3ccccc3n3c(=O)ccc1c23.[I-]`, the MIC against Ralstonia solanacearum [1], in the assay with Ralstonia solanacearum [2], against Bacillus cereus and with Staphylococcus aureus was more than 125 µg/mL in each case.

On to `Cc1ccccc1C[n+]1ccc2c3ccccc3n3c(=O)ccc1c23.[Cl-]`, for which the MIC against Ralstonia solanacearum [1] is 3.91 µg/mL; against Ralstonia solanacearum [2] it was 7.81 µg/mL; in the assay on Bacillus cereus it was 7.81 µg/mL; in the assay with Staphylococcus aureus, 1.95 µg/mL.

In the case of `O=c1ccc2c3c(cc[n+]2Cc2ccccc2)c2ccccc2n13.[Br-]`, the MIC with Ralstonia solanacearum [1] stood at 7.81 µg/mL; against Ralstonia solanacearum [2] it was 3.91 µg/mL; against Bacillus cereus it was 3.91 µg/mL; in the assay with Staphylococcus aureus, 0.98 µg/mL.

Consider `O=c1ccc2c3c(cc[n+]2Cc2ccc(OCc4ccccc4)cc2)c2ccccc2n13.[Cl-]`, for which the minimum inhibitory concentration (MIC) is 3.91 µg/mL with Ralstonia solanacearum [1], 7.81 µg/mL in the assay on Ralstonia solanacearum [2], 15.6 µg/mL with Bacillus cereus and 0.98 µg/mL in the assay with Staphylococcus aureus.

For the compound `O=c1ccc2c3c(cc[n+]2[O-])c2ccccc2n13`, the MIC in the assay with Ralstonia solanacearum [1] amounted to 7.81 µg/mL (≈ 33.1 µM); in the assay on Ralstonia solanacearum [2] it was 15.6 µg/mL (≈ 66.2 µM); with Bacillus cereus, 15.6 µg/mL (≈ 66.2 µM); against Staphylococcus aureus, 15.6 µg/mL (≈ 66.2 µM).

On to `CCCC[n+]1ccc2c3ccccc3n3c(=O)ccc1c23.[I-]`, for which the MIC with Ralstonia solanacearum [1] turned out to be 62.5 µg/mL; in the assay on Ralstonia solanacearum [2] it was 62.5 µg/mL; in the assay on Bacillus cereus, 125 µg/mL; with Staphylococcus aureus, 62.5 µg/mL.

`CC1(C)S[C@@H]2[C@H](NC(=O)[C@H](N)c3ccccc3)C(=O)N2[C@H]1C(=O)[O-].[Na+]` [AMPICILLIN SODIUM]: the minimum inhibitory concentration (MIC) in the assay on Ralstonia solanacearum [1] came to 7.81 µg/mL; with Ralstonia solanacearum [2], 7.81 µg/mL; in the assay with Bacillus cereus it was 3.91 µg/mL; against Staphylococcus aureus, 3.91 µg/mL.

With `O=c1ccc2nccc3c4ccccc4n1c23` [CANTHIN-6-ONE], the MIC was determined as 3.91 µg/mL (≈ 17.8 µM) in the assay with Ralstonia solanacearum [1], 7.81 µg/mL (≈ 35.5 µM) in the assay with Ralstonia solanacearum [2], 7.81 µg/mL (≈ 35.5 µM) with Bacillus cereus and 31.2 µg/mL (≈ 142 µM) against Staphylococcus aureus.

With `C[C@@H]1O[C@@H]1P(=O)([O-])[O-].[Na+].[Na+]` [PHOSPHOMYCIN DISODIUM], the MIC against Ralstonia solanacearum [1] was 125 µg/mL; with Ralstonia solanacearum [2], 1.95 µg/mL; in the assay with Bacillus cereus, 3.91 µg/mL; against Staphylococcus aureus, 3.91 µg/mL.
